Literature values, collected in publication PMC4894568 (PLoS ONE, 2016).

Assays:
Influenza A virus [1] = conditions: mouse, in vivo
Influenza A virus [2] = system: Influenza A virus

LL-37
infection with Influenza A virus in an infection model (Influenza A virus [1]): prevented or inhibited the infection | infectivity of Influenza A virus (Influenza A virus [2]): influenced the infectivity
